The subject of assay [1] is NCI-H460. The experiment in a line: Inhibitory concentration against human lung carcinoma cell line H460 after 48 hr in MTT assay. The format is functional, cell-based. The conditions noted are these: NCI-H460, 48 h.
For assay [2], the system named is NCI-H460. The assay is described as follows: Percent of cells with COMET measured after single cell gel electrophoresis with the compound. It counts as functional, Homo sapiens.

The record followed here is ChEMBL document CHEMBL1144348, “Mechanism of cytotoxicity of copper(I) complexes of 1,2-bis(diphenylphosphino)ethane” (J Med Chem, 2005).

Converted amounts (≈) assume the structure as drawn.

The term IC50 denotes the midpoint of a concentration-inhibition curve.

As for `c1ccc(P(CCP(c2ccccc2)c2ccccc2)c2ccccc2)cc1`, inhibition in the assay with NCI-H460 [1] was half-maximal at 0.25 µg/mL (≈ 0.627 µM) (IC50).
With `COc1cccc2c1C(=O)c1c(O)c3c(c(O)c1C2=O)C[C@@](O)(C(=O)CO)C[C@@H]3O[C@H]1C[C@H](N)[C@H](O)[C@H](C)O1` [DOXORUBICIN], the Activity with NCI-H460 [2] is reported as 93.55%. Besides, 0.05 µg/mL (≈ 0.092 µM) corresponded to half-maximal inhibition in the assay with NCI-H460 [1] (IC50).
